In patent US4837221A, “Methods of treating tumors susceptible to necrosis” (Efamol Ltd., priority 1984, dated 1989):
Values joined by “and” are separate entries in the source; they are usually repeats but may differ in a detail not shown here. Identical values can stand only once. “Also recorded” adds a separate entry of the source.

Assays:
[1] = test system: transplantable mouse tumour originating in plasma cells; assay: Depth of tumour necrosis after photosensitising drug and illumination (10J/cm^2) in mice; format: in vivo; conditions: for Depths of tumour necrosis: 10J/cm^2 at 660nm, individual values; for effectiveness in DMSO versus alkali (in words): DMSO compared with alkali (NaOH); for effectiveness as photosensitiser for tumour tissue (in words): mouse assay
Description: The photosensitising drug is given intravenously in aqueous medium or intraperitoneally in DMSO, the tumour exposed to light at the appropriate wavelength and the depth of tumour necrosis measured. […] Results are shown in graph. The relative potency is determined by comparing amounts of drugs required to produce equal effects.
A preliminary comparison was made. […] The light dose was 10J/cm^2 at 660nm.

cranium (brain) of mice = assay: Cerebral photosensitisation: deaths within 48 hours after white light to the cranium; format: in vivo, mouse; conditions: 0.033 μM/kg i.v., 24 hours later 20J/cm^2 white light to cranium
Description: Deaths within 48 hours (due to acute cerebral oedema) were: […]

brain vascular lining = assay: Cerebral photosensitisation: Evans blue in the brain after white light to the cranium; format: in vivo, mouse; conditions: 0.033 μM/kg i.v., 20J/cm^2 white light; dye 4 hours after exposure, measured 1 hour later; groups of 5 mice
Description: Normally, very little is found, and this is largely dye still circulating in the blood 1 hour after injection, and not in the brain substance itself. An increase is produced by agents that damage the brain vascular lining, allowing dye to enter the brain substance.

depilated skin = assay: Skin photosensitisation: increase in skin thickness after illumination; format: in vivo, mouse
Description: The increase in skin thickness was measured 4 hours after illumination.

Solubility = format: physicochemical
[2] = test system: transplantable mouse tumour originating in plasma cells; assay: Depth of tumour necrosis after photosensitising drug and illumination (10J/cm^2) in mice; format: in vivo; conditions: for Necrosis (after 10J/cm^2), depth: ± S.E.M.

Oc1ccc(-c2c3nc(c(-c4ccc(O)cc4)c4ccc([nH]4)c(-c4ccc(O)cc4)c4nc(c(-c5ccc(O)cc5)c5ccc2[nH]5)C=C4)C=C3)cc1 [HK7, 5,10,15,20-tetra (4-hydroxyphenyl) porphyrin]
Depths of tumour necrosis ([1]; 33 μM/kg, NaOH-DMSO): 0.5 mm and 1.5 mm and 4.5 mm | Depths of tumour necrosis ([1]; 67 μM/kg, DMSO): 4 mm and 5 mm and 6 mm | effectiveness in DMSO versus alkali (in words) [1]: rather more effective administered in DMSO than in alkali | effectiveness as photosensitiser for tumour tissue (in words) [1]: more effective photosensitiser for tumour tissue in animal assay than is HpD | Deaths within 48 hours (due to acute cerebral oedema) (cranium (brain) of mice): 0/5 | amount of Evans blue in the brain (brain vascular lining): 23.6 ± 3.65 μg dye/brain | skin photosensitisation, by 1 week (depilated skin; 1 week, equimolar doses, 10J/cm^2, HK7 vs HpD): little difference | skin photosensitisation, by 2 weeks (depilated skin; 2 weeks, maximum dose, 10J/cm^2): no longer sensitises to this dose of light | skin photosensitisation, 1 day after porphyrin injection (depilated skin; 1 day, equimolar doses, 10J/cm^2 (625nm HpD, 656nm HK7)): more potent skin sensitiser than HpD | skin photosensitisation, potency and persistence (depilated skin; HK7 compared with HpD, overall): less persistant than that caused by HpD; also recorded: more potent skin photosensitiser than HpD, but that the effect is more transient | solubility in neutral aqueous media (Solubility): relatively insoluble in neutral aqueous media | Necrosis (after 10J/cm^2), depth ([2]; 6.25 μM/kg, DMSO, 656 nm): 1.17 ± 0.31 mm and 0.85 ± 0.38 mm | Necrosis (after 10J/cm^2), depth ([2]; 12.5 μM/kg, DMSO, 656 nm): 2.86 ± 0.26 mm and 2.50 ± 0.52 mm | Necrosis (after 10J/cm^2), depth ([2]; 12.5 μM/kg, NaOH, 654 nm): 2.40 ± 0.10 mm | Necrosis (after 10J/cm^2), depth ([2]; 25 μM/kg, DMSO, 656 nm): 3.54 ± 0.48 mm and 2.63 ± 0.56 mm | Necrosis (after 10J/cm^2), depth ([2]; 25 μM/kg, NaOH, 654 nm): 3.64 ± 0.39 mm | Necrosis (after 10J/cm^2), depth ([2]; 25 μM/kg, NaOH, 669 nm): 2.75 ± 0.25 mm and 2.38 ± 0.24 mm | Necrosis (after 10J/cm^2), depth ([2]; 50 μM/kg, DMSO, 656 nm): 5.06 ± 0.48 mm | Necrosis (after 10J/cm^2), depth ([2]; 50 μM/kg, NaOH, 669 nm): 3.32 ± 0.63 mm and 3.25 ± 0.37 mm | effectiveness in tumour necrosis (in words) ([2]; 6.25 μm/kg): reasonably effective | tumour sensitisation at the dose of the cerebral test (in words) ([2]; 24 hours after dose, see graph): substantial tumour sensitisation | amount of drug required to produce equal effect (HK7 vs HpD) ([2]; i.v., 10J/cm^2, 630nm HpD, 658nm HK7): ~0.0125 µM/kg

Oc1ccc(-c2c3nc(c(-c4ccc(O)cc4)c4ccc([nH]4)c(-c4ccc(O)cc4)c4nc(c(-c5ccc(O)cc5)c5ccc2[nH]5)C=C4)C=C3)cc1 [HK7.4EtOH]
Depths of tumour necrosis ([1]; 33 μM/kg, NaOH-DMSO): 0.25 mm and 0.5 mm and 0.75 mm and 2 mm | Depths of tumour necrosis ([1]; 67 μM/kg, DMSO): 3.75 mm and 4 mm (2×) and 5 mm

Oc1ccc(-c2c3nc(c(-c4ccc(O)cc4)c4ccc([nH]4)c(-c4ccc(O)cc4)c4nc(c(-c5ccc(O)cc5)c5ccc2[nH]5)C=C4)C=C3)cc1 [K-HK7]
Necrosis (after 10J/cm^2), depth ([2]; 12.5 μM/kg, DMSO, 656 nm): 2.50 ± 0.44 mm | Necrosis (after 10J/cm^2), depth ([2]; 25 μM/kg, DMSO, 656 nm): 3.32 ± 0.59 mm | Necrosis (after 10J/cm^2), depth ([2]; 50 μM/kg, NaOH, 654 nm): 5.06 ± 0.12 mm

Oc1ccc(-c2c3nc(c(-c4ccc(O)cc4)c4ccc([nH]4)c(-c4ccc(O)cc4)c4nc(c(-c5ccc(O)cc5)c5ccc2[nH]5)C=C4)C=C3)cc1 [Li-HK7]
Necrosis (after 10J/cm^2), depth ([2]; 25 μM/kg, DMSO, 656 nm): 3.31 ± 0.40 mm and 3.00 ± 0.72 mm and 3.00 ± 0.51 mm | Necrosis (after 10J/cm^2), depth ([2]; 50 μM/kg, DMSO, 656 nm): 2.46 ± 0.38 mm and 3.50 ± 0.41 mm | necrosis depth ([2]; 12.5 μm/kg): below 1.0 mm

Oc1ccc(-c2c3nc(c(-c4ccc(O)cc4)c4ccc([nH]4)c(-c4ccc(O)cc4)c4nc(c(-c5ccc(O)cc5)c5ccc2[nH]5)C=C4)C=C3)cc1 [Na-HK7]
Necrosis (after 10J/cm^2), depth ([2]; 25 μM/kg, DMSO, 656 nm): 2.28 ± 0.47 mm | Necrosis (after 10J/cm^2), depth ([2]; 50 μM/kg, DMSO, 656 nm): 2.80 ± 0.12 mm and 3.79 ± 0.29 mm | Necrosis (after 10J/cm^2), depth ([2]; 50 μM/kg, NaOH, 664 nm): 3.15 ± 0.83 mm | necrosis depth ([2]; 12.5 μm/kg): below 1.0 mm

Oc1cccc(-c2c3nc(c(-c4cccc(O)c4)c4ccc([nH]4)c(-c4cccc(O)c4)c4nc(c(-c5cccc(O)c5)c5ccc2[nH]5)C=C4)C=C3)c1 [meta-HK7]
effectiveness in DMSO versus alkali (in words) [1]: equally effective in both | effectiveness as photosensitiser for tumour tissue (in words) [1]: most active compound found | Necrosis (after 10J/cm^2), depth ([2]; 1.56 μM/kg, DMSO, 648 nm): 0.65 ± 0.22 mm | Necrosis (after 10J/cm^2), depth ([2]; 6.25 μM/kg, DMSO, 648 nm): 3.53 ± 0.49 mm and 2.88 ± 0.9 mm and 3.86 ± 0.18 mm | Necrosis (after 10J/cm^2), depth ([2]; 6.25 μM/kg, NaOH, 648 nm): 3.78 ± 0.36 mm and 3.64 ± 0.34 mm | Necrosis (after 10J/cm^2), depth ([2]; 12.5 μM/kg, DMSO, 648 nm): 4.44 ± 0.35 mm and 4.5 ± 0.5 mm | Necrosis (after 10J/cm^2), depth ([2]; 12.5 μM/kg, NaOH, 648 nm): 3.25 ± 0.33 mm | Necrosis (after 10J/cm^2), depth ([2]; 25.0 μM/kg, DMSO, 648 nm): 5.37 ± 0.55 mm | Necrosis (after 10J/cm^2), depth ([2]; 50.0 μM/kg, DMSO, 648 nm): 4.63 ± 0.64 mm | effectiveness in tumour necrosis (in words) ([2]; 1.56 μm/kg): some effect | effectiveness in tumour necrosis (in words) ([2]; 3.12 μm/kg): effective

Oc1ccccc1-c1c2nc(c(-c3ccccc3O)c3ccc([nH]3)c(-c3ccccc3O)c3nc(c(-c4ccccc4O)c4ccc1[nH]4)C=C3)C=C2 [ortho-HK7, 5,10,15,20-TETRA(o-HYDROXYPHENYL) PORPHYRIN]
Necrosis (after 10J/cm^2), depth ([2]; 6.25 μM/kg, DMSO, 648 nm): 2.45 ± 0.28 mm | Necrosis (after 10J/cm^2), depth ([2]; 12.5 μM/kg, DMSO, 648 nm): 3.03 ± 0.29 mm | Necrosis (after 10J/cm^2), depth ([2]; 25.0 μM/kg, DMSO, 648 nm): 4.21 ± 0.32 mm and 3.21 ± 0.56 mm | Necrosis (after 10J/cm^2), depth ([2]; 50.0 μM/kg, DMSO, 648 nm): 4.25 ± 0.50 mm

O=S(=O)(O)c1ccc(-c2c3nc(c(-c4ccc(S(=O)(=O)O)cc4)c4ccc([nH]4)c(-c4ccc(S(=O)(=O)O)cc4)c4nc(c(-c5ccc(S(=O)(=O)O)cc5)c5ccc2[nH]5)C=C4)C=C3)cc1 [tetra-(p-hydroxysulphonyl phenyl) porphyrin, reference compound]
necrosis depth ([2]; molar equivalent dose to HpD 67 μmol/kg, saline, 550 nm): 0.30±0.11 mm
